# From US12295959B2 (priority 2021, dated 2025)
# How the values were obtained:
# [1] = test system: 5HT2A sensor; type: cell-based
# [2] = test system: mice; test: Head-twitch response (HTR); type: in vivo
# Method: Head twitch response (HTR) experiments. C57BL/6J Mice (9-10 weeks old) are housed following an IACUC approved protocol. The mice are habituated in the test cage for at least 30 min, injected intraperitoneally with compound (injection volume 5 ml/kg), returned to the empty test cage, and filmed for 20 minutes. Each video is scored for the number of head-twitches by a trained observer blinded to treatment condition.
# [3] = molecular target: T1, 5-HT2A (Homo sapiens, UniProt P28223); test: Serotonin 5-HT2A in vitro cellular IPOne antagonism assay; type: cell-based; set-up: host or cells: CHO-K1; details: CHO-K1 cells, antagonist mode, reference agonist a-Me-5HT
# Method: (§1) Serotonin 5-HT2A and 5-HT2C In Vitro Cellular IPOne Antagonism Assay. The 5-HT2A IPOne HTRF assay was performed at Epics Therapeutics S.A. (Belgium, FAST-0505I) in antagonism mode using conventional methods. Briefly, CHO-K1 cells expressing human recombinant 5-HT2A receptor grown to mid-log phase in culture media without antibiotics were detached with PBS-EDTA, centrifuged, and resuspended in medium without antibiotics buffer. 20,000 cells were distributed in a 96 well plate and incubated overnight at 37° C. with 5% CO2.
# For antagonist testing, a reference agonist a-Me-5HT was added and fluorescence signal monitored for several minutes, followed by addition of 20 μl of assay buffer plus 20 μl of test compound or reference antagonist ketanserin, in each well. The plate was incubated for 60 min. at 37° C. with 5% CO2.
# (§2) After addition of the lysis buffer containing IP1-d2 and anti-IP1 cryptate detection reagents, plates were incubated 1-hour at room temperature, and fluorescence ratios were measured according to the manufacturer specification, with the HTRF kit.
# [4] = molecular target: T1, 5-HT2A; test: Serotonin 5-HT2A in vitro radioligand binding competition assay ([3H]-DOI); set-up: purchased Epics Therapeutics S.A. (Belgium) FAST-0505B; host or cells: membrane extracts; details: [3H]-DOI competition, membrane extracts
# Method: Serotonin 5-HT2A In Vitro Radioligand Binding Competition Assay. The 5-HT2A radioligand binding competition assay was performed at Epics Therapeutics S.A. (Belgium, FAST-0505B) using conventional methods. Briefly, competition binding was performed in duplicate in the wells of a 96 well plate (Master Block, Greiner, 786201) containing binding buffer (optimized for each receptor), membrane extracts (amount of protein/well optimized for each receptor), radiotracer [^3H]-DOI (final concentration optimized for each receptor) and test compound. Nonspecific binding was determined by co-incubation with 200-fold excess of cold competitor. The samples were incubated in a final volume of 0.1 ml at a temperature and for a duration optimized for each receptor and then filtered over filter plates. Filters were washed six times with 0.5 ml of ice-cold washing buffer (optimized for each receptor) and 50 μl of Microscint 20 (Packard) was added in each well. The plates were incubated 15 min on an orbital shaker and then counted with a TopCount™ for 1 min/well.
# [5] = test system: rat cortical neurons; test: Neurite outgrowth assay; type: cell-based; set-up: key: A: Statistically significant mean increase as a percent of DMSO control at 10 μM or less.; B: No statistically significant mean increase as a percent of DMSO control at 10 μM or less; details: 72 h, 10 μM or less, vs DMSO control
# From the text: Neurite Outgrowth Assay. Changes in the pattern of neurite outgrowth have been implicated in psychiatric and neurodegenerative disorders as well as traumatic injuries. The discovery of new compounds that can positively affect neuritogenesis are important for developing new therapeutics for neurological diseases. Measurement of neurite outgrowth of rat cortical neurons using an automated image-based assay was used to determine the neuroplastic effects of the compounds of the present invention. The neurite outgrowth assay was performed at Neurofit SAS (France) as described below.
# Pregnant Wistar rats (Janvier; France) were used for the study. They were delivered 6 days before their use. Upon arrival at Neurofit animal facility, they were housed one per cage and maintained in a room with controlled temperature (21-22° C.) and a reversed light-dark cycle (12 h/12 h; lights on: 17:30-05:30; lights off: 05:30-17:30) with food and water available ad libitum.
# Female Wistar rats of 17 days gestation were killed by cervical dislocation and the fetuses were removed from the uterus. Their brains were placed in ice-cold medium of Leibovitz (L15, Gibco, Fisher bioblock, France). Cortices were dissected and meninges were carefully removed. The cortical neurons were dissociated by trypsinization for 30 min at 37° C. (trypsin-EDTA, Gibco) in presence of 0.1 mg/ml DNAse I (Roche, France). The reaction was stopped by addition of Dulbecco's Modified Eagle Medium (DMEM; Gibco) with 10% of fetal bovine serum (FBS; Gibco). The suspension was triturated with a 10-ml pipette and using a needle syringe 21G and centrifuged at 350×g for 10 min at room temperature. The pellet of dissociated cells was resuspended in a medium consisting of Neurobasal (Gibco) supplemented with 2% B27 supplement (Gibco), 0.5 mM L-Glutamine (Gibco), an antibiotic-antimicotic mixture. Viable cells were counted in a Neubauer cytometer using the trypan blue exclusion test (Sigma). Cells were seeded at a density of 10000 cells per well in 96-well plate (Costar) precoated with poly-L-lysine. Test compound at different concentrations were added to the cultures. Donepezil (positive control) was tested at 250 nM.
# After 72 h (3 days) of plating, cultures were fixed with paraformaldehyde in PBS (4%, Sigma) for 30 min at 4° C. Then, cells were successively permeabilized with 0.1% Triton X100 for 30 min, saturated with PBS containing 3% of BSA and were incubated 1 h with anti-beta III tubulin antibody (Sigma) at 1/10 000 in PBS containing 0.5% of BSA. Cells were washed three times with PBS containing 0.5% of BSA, and they were incubated 1 h with goat anti-mouse antibody coupled with AF488 (Invitrogen A 11001) diluted at 1/1000 in PBS containing 0.5% of BSA. Finally, nuclei were staining with DAPI 1 mg/ml at 1/1000 in PBS containing 0.5% of BSA. After rinsing with PBS, the plate was filmed and neurite networks were examined and analyzed using High-Content Screening (CellInsight, Thermo Scientific). The average number of neurites per neuron and the average total length of neurites per neuron were the main parameters analyzed. Analysis of data was performed using analysis of variance (ANOVA). The Fisher's Protected Least Significant Difference test was used for multiple comparisons. A p value≤0.05 was considered significant. The software used is StatView 5.0 from SAS Institut.
# [6] = molecular target: T1, 5-HT2A; test: Serotonin 5-HT2A in vitro cellular IPOne agonism assay (HTRF); type: cell-based; set-up: host or cells: CHO-K1; details: CHO-K1 cells, agonist mode
# Method: as §1, with “5-HT2A” for “5-HT2A and 5-HT2C”, “Agonism” for “Antagonism”, “FAST-0505I)” for “FAST-0505I) in antagonism mode”
# For agonist testing, the medium was removed and 20 μl of assay buffer plus 20 μl of test compound or reference agonist are added in each well. The plate was incubated for 60 min. at 37° C. with 5% CO2.
# as §2
# T1 sequence (P28223 whole entry): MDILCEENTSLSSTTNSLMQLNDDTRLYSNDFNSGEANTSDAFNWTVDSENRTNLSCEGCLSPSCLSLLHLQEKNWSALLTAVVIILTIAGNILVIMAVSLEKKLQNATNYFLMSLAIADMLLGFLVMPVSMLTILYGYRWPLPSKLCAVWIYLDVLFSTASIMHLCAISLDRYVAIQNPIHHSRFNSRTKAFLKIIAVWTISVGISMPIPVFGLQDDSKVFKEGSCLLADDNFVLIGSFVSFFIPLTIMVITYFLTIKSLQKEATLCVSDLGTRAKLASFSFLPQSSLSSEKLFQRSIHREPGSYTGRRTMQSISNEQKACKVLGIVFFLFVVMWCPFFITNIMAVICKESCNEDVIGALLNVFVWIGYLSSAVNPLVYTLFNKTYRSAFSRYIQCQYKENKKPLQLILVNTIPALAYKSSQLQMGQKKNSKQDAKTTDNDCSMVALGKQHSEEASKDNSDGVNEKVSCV
SMILES,activation of the 5HT2A sensor assay in agonist mode [1],head-twitch response (HTR) [2],IC50 [3],IC50 [4],Increase in Neurite Branching [5],Increase in Neurite Length [5],Increase in Neurite Number [5],EC50 [6]
CCN(CC)C(=O)[C@@H]1C=C2c3cccc4[nH]c(Br)c(c34)C[C@H]2N(C)C1 [BOL148],do not activate,–,–,–,–,–,–,–
"COc1ccc2[nH]cc(CCN(C)C)c2c1 [Compound 5-MeO-DMT, 5-MeO-DMT]",activate,"robust, dose-dependent head-twitch response",–,–,–,–,–,–
"CCN(CC)CCc1c[nH]c2cc(F)ccc12 [Compound 6-F-DET, 6-F-DET]",do not activate,–,–,–,–,–,–,–
"COc1ccc2c(CCN(C)C)c[nH]c2c1 [Compound 6-MeO-DMT, 6-MeO-DMT]",do not activate,does not produce a HTR,–,–,–,–,–,–
"CN1CCc2[nH]c3cc(Oc4ccccc4)ccc3c2CC1 [Compound 12, 3-methyl-8-phenoxy-1,2,3,4,5,6-hexahydroazepino[4,5-b]indole]",–,–,101 to 1000 nM,101 to 1000 nM,A,A,A,> 10000 nM
"CN1CCc2c(n(C)c3cc(Oc4ccccc4)ccc23)CC1 [Compound 14, 3,6-dimethyl-8-phenoxy-1,2,3,4,5,6-hexahydroazepino[4,5-b]indole]",–,–,1000 to 10000 nM,1000 to 10000 nM,B,A,B,> 10000 nM
"CN1CCc2[nH]c3cc(Oc4ccc(F)cc4)ccc3c2CC1 [Compound 16, 8-(4-fluorophenoxy)-3-methyl-1,2,3,4,5,6-hexahydroazepino[4,5-b]indole]",–,–,101 to 1000 nM,101 to 1000 nM,A,A,B,> 10000 nM
"CN1CCc2c(n(C)c3cc(Oc4ccc(F)cc4)ccc23)CC1 [Compound 18, 8-(4-fluorophenoxy)-3,6-dimethyl-1,2,3,4,5,6-hexahydroazepino[4,5-b]indole]",–,–,101 to 1000 nM,101 to 1000 nM,A,A,A,> 10000 nM
"Cn1c2c(c3c(OCc4ccccc4)cccc31)CCNCC2 [Compound 19, 10-(benzyloxy)-6-methyl-1,2,3,4,5,6-hexahydroazepino[4,5-b]indole]",–,–,101 to 1000 nM,101 to 1000 nM,B,B,B,1000 to 10000 nM
"CN1CCc2[nH]c3cccc(Oc4ccc(F)cc4)c3c2CC1 [Compound 22, 10-(4-fluorophenoxy)-3-methyl-1,2,3,4,5,6-hexahydroazepino[4,5-b]indole]",–,–,10 to 100 nM,10 to 100 nM,A,A,A,> 10000 nM
"CN1CCc2c(n(C)c3cccc(Oc4ccc(F)cc4)c23)CC1 [Compound 24, 10-(4-fluorophenoxy)-3,6-dimethyl-1,2,3,4,5,6-hexahydroazepino[4,5-b]indole]",–,–,10 to 100 nM,10 to 100 nM,B,A,B,> 10000 nM
"c1ccc(COc2ccc3[nH]c4c(c3c2)CCNCC4)cc1 [Compound 25, 9-(benzyloxy)-1,2,3,4,5,6-hexahydroazepino[4,5-b]indole]",–,–,101 to 1000 nM,101 to 1000 nM,–,A,–,> 10000 nM
"CN1CCc2[nH]c3ccc(OCc4ccccc4)cc3c2CC1 [Compound 26, 9-(benzyloxy)-3-methyl-1,2,3,4,5,6-hexahydroazepino[4,5-b]indole]",–,–,101 to 1000 nM,101 to 1000 nM,A,A,A,> 10000 nM
"CN1CCc2[nH]c3c(OCc4ccccc4)cccc3c2CC1 [Compound 28, 7-(benzyloxy)-3-methyl-1,2,3,4,5,6-hexahydroazepino[4,5-b]indole]",–,–,10 to 100 nM,10 to 100 nM,A,A,A,> 10000 nM
"CN1CCc2[nH]c3c(Br)ccc(OCc4ccccc4)c3c2CC1 [Compound 29, 10-(benzyloxy)-7-bromo-3-methyl-1,2,3,4,5,6-hexahydroazepino[4,5-b]indole]",–,–,10 to 100 nM,10 to 100 nM,B,A,B,10 to 100 nM
"CN(C)CCc1c[nH]c2ccccc12 [DMT, N,N-dimethyltryptamine]",activate,–,–,–,–,–,–,–
COc1cc(CC(C)N)c(OC)cc1I (stereo not drawn) [DOI],activate,–,–,–,–,–,–,–
O=C(c1ccc(F)cc1)C1CCN(CCn2c(=O)[nH]c3ccccc3c2=O)CC1 [Ketanserin],do not activate,–,–,–,–,–,–,–
CNC(C)Cc1ccc2c(c1)OCO2 [L-MDMA],do not activate,–,–,–,–,–,–,–
CCN(CC)C(=O)[C@@H]1C=C2c3cccc4[nH]cc(c34)C[C@H]2N(C)C1 [LSD],activate,–,–,–,–,–,–,–
